Measured values published in patent publication US20240132449A1, “HETEROCYCLIC COMPOUNDS AND METHODS OF USE THEREOF” (1cBio, Inc., priority 2022, published 2024).
Structures can show the parent of a compound that is named as a salt.

Columns and labels:
[1] = test system: DLD-1 BRCA2(−/−) colorectal adenocarcinoma cells; assay: Cell viability assay (Cell Titer-Glo), DLD-1 BRCA2(−/−); type: cell-based; settings: Homo sapiens, DLD-1, 168 h; 7 days incubation, 200 cells/well
In short: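 Isogenic DLD-1 wild-type (50 cells/well) and BRCA2(−/−) (200 cells/well) lines treated after overnight attachment, 7 days at 37 °C, 5% CO2. Ten-point dilutions (e.g. 1.5 nM–30 μM) or single dose; CellTiter-Glo luminescence; IC50 from four-parameter fit, plus % inhibition at 10 μM.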

PARP1 [2] = target: T1, PARP1 (Homo sapiens, UniProt P09874); assay: PARP1 biochemical trapping assay (BPS PARPtrap)
Protocol: Compounds of the present disclosure were tested in a PARP1 biochemical trapping assay at BPS Bioscience (San Diego, CA). PARP1 is known to bind damaged DNA through its DNA-binding domains. Binding to DNA activates PARP1, and in the presence of NAD+, PARP1 ribosylates itself (auto-ribosylation), leading to PARP1 dissociation from the DNA due to the accumulated negative charge of the ribosyl polymer. In the presence of some inhibitors, however, PARP remains bound to the DNA, a phenomenon termed trapping.
The BPS PARPtrap assay kit for PARP1 (BPS Catalog #80584) was used. A series of dilutions of the compounds were prepared with 10% DMSO in water. The final concentration of DMSO was 1% in all reactions. The enzymatic reactions were conducted in duplicates at room temperature in a 96-well plate. The 45 μl reaction mixtures in PARPtrap buffer 1 containing PARP1 fluorescent labelled oligonucleotide duplex, PARP enzyme and the test compound were incubated at room temperature for 10 min. After pre-incubation, the enzymatic reaction was initiated by adding 5 μl of 10×NAD+ solution. The reaction was incubated for 45-60 min at room temperature.
Fluorescence polarization was measured at an excitation of 470 nm and an emission of 518 nm using a Tecan Infinite M1000 microplate reader. The blank value was subtracted from all other values. Fluorescence polarization was analyzed by Tecan Magellan 6 software and wells containing DNA were used as references. The fluorescence polarization data were then evaluated using GraphPad Prism software. The fluorescence polarization in absence of the compound in each data set was defined as 0% activity (FPo), while the fluorescence polarization in the absence of both NAD+ and the compound was defined as 100% activity (FPt). The percent activity in the presence of the compound was calculated according to the equation % activity=[FP−FPo]/[(FPt−FPo)]×100, where FP=the fluorescence polarization in the presence of the compound.
The values of % activity versus a series of compound concentrations were then plotted using non-linear regression analysis of a sigmoidal dose-response curve generated with the equation Y=B+(T−B)/1+10^((LogEC50−X)×Hill Slope), where Y=percent activity, B=minimum percent activity, T=maximum percent activity, X=logarithm of compound and Hill Slope=slope factor or Hill coefficient. The EC50 value was determined by the concentration causing a half-maximal percent activity. EC50 values are shown in Table C and are presented in ranges, in which “+++”<300 nM, 300 nM≤“++”<3000 nM, and “+”≥3000 nM.

PARP1 [3] = target: T1, PARP1; assay: PARP1 fluorescence polarization binding assay; settings: binding IC50, GST-tagged PARP1 20 nM, PARPi-FL 3 nM
In short: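 Competitive FP binding: 20 nM GST-tagged PARP1 preincubated with compound 30 min at RT, then 3 nM PARPi-FL probe for 4 h at RT; buffer 50 mM Tris pH 8.0, 10 mM MgCl2, 150 mM NaCl. 10-point 3-fold dilutions; % inhibition from mP versus controls, IC50 by four-parameter fit, reported in ranges.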

T1 sequence (P09874 whole entry, the tested form may be a part): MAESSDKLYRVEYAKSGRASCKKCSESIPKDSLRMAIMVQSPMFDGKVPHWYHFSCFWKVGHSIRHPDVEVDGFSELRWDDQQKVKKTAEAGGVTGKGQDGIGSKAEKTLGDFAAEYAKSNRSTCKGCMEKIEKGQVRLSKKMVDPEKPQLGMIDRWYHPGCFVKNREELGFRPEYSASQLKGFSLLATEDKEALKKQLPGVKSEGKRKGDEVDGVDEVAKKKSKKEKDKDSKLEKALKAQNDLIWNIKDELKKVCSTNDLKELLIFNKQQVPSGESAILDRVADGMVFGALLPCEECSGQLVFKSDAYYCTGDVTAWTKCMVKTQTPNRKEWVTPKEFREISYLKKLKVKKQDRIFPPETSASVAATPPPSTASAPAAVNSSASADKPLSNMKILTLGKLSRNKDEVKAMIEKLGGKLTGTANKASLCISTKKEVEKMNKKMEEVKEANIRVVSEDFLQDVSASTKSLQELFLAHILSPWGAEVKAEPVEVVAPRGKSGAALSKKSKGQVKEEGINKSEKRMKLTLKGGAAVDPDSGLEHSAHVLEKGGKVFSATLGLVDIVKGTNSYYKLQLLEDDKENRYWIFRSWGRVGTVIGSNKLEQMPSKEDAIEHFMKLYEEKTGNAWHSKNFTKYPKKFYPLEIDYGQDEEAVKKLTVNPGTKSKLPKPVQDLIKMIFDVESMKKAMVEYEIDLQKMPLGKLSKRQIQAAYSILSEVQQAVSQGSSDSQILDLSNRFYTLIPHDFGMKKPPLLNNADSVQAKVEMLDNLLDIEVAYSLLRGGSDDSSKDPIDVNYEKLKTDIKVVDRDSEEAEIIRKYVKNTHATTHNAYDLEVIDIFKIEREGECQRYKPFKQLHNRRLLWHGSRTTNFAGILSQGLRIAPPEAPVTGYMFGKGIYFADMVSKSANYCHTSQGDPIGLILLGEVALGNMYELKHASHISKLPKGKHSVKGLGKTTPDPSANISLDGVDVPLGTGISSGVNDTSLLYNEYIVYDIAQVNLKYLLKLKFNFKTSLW

Row | SMILES | IC50 [1] | EC50 (PARP1 [2]) | IC50 (PARP1 [3])
1 | CCn1c(=O)[nH]c2cc(CN3CCN(c4ccc(C(=O)NC)nc4C)CC3)ccc2c1=O [Compound 16, 5-{4-[(3-ethyl-2,4-dioxo-1H-quinazolin-7-yl)methyl]piperazin-1-yl}-N,6-dimethylpyridine-2-carboxamide] | < 300 nM | < 300 nM | < 100 nM
2 | CCn1c(=O)[nH]c2cc(CN3CCN(c4ccc(C(=O)NC)nc4)CC3)ccc2c1=O [Compound 3, 5-(4-((3-ethyl-2,4-dioxo-1,2,3,4-tetrahydroquinazolin-7-yl)methyl)piperazin-1-yl)-N-methylpicolinamide formate] | 300 to 3000 nM | 300 to 3000 nM | < 100 nM
3 | CCn1c(=O)[nH]c2cc(CN3CCN(c4ccc(C(=O)NC)nc4C)CC3)ccc2c1=S [Compound 51, 5-(4-((3-ethyl-2-oxo-4-thioxo-1,2,3,4-tetrahydroquinazolin-7-yl)methyl)piperazin-1-yl)-N,6-dimethylpicolinamide formate] | < 300 nM | 300 to 3000 nM | < 100 nM
4 | CCN1Cc2ccc(CN3CCN(c4ccc(C(=O)NC)nc4)CC3)cc2NC1=O [Compound 196, 5-(4-((3-ethyl-2-oxo-1,2,3,4-tetrahydroquinazolin-7-yl)methyl)piperazin-1-yl)-N-methylpicolinamide formate] | 300 to 3000 nM | 300 to 3000 nM | < 100 nM
5 | CCn1c(=O)[nH]c2cc(CN3CCN(c4ccc(C(=O)NC)nc4C)CC3)sc2c1=O [Compound 188, 5-(4-((3-ethyl-2,4-dioxo-1,2,3,4-tetrahydrothieno[3,2-d]pyrimidin-6-yl)methyl)piperazin-1-yl)-N,6-dimethylpicolinamide] | < 300 nM | 300 to 3000 nM | < 100 nM
